Like-named read-outs stand apart in the source and are kept apart here.
What was measured:
[1] = test system: Pseudomonas putida KT2440; test: Bacterial growth in microscale cultivation, P. putida; assay type: cell-based; conditions: relative to control; for activity at 55 µM / activity at 550 µM: Pseudomonas putida
Experimental: (§1) The following bacteria were cultivated in the presence of trans-chalcone derived inhibitors: Corynebacterium glutamicum ATCC13032[43], Escherichia coli K-12 MG1655[44], Pseudomonas putida KT2440[45], and Bacillus subtilis 168[46]. The growth of these bacteria was monitored in flower-well plates shaken at 1200 rpm as backscatter at 620 nm (gain 20) using a BioLector® microscale cultivation system (m2p labs, Baesweiler, Germany). For further experimental details please refer to the Supplementary Information.
(§2) medium or the appropriate minimal medium and shaken at 140 rpm overnight. For inoculation of
(§3) the main culture, cells equivalent to an optical density at 600 nm of 0.5 (C. glutamicum, E. coli,
(§4) and P. putida) or 0.25 (B. subtilis) in 800 µL medium were washed and resuspended in fresh
(§5) media. Inhibitor substances were dissolved in DMSO and added to the media to a final
(§6) Since the least polar trans-chalcone and 2’-hydroxychalcone precipitated in the growth media at
(§7) the highest concentrations, the maximal concentration of these compounds was reduced to 400
(§8) µM and 100 µM, respectively. The final backscatter at 620 nm, the growth rate (h-1), and the
(§9) duration of the lag phase of all cultures were determined in a BioLector microscale cultivation
(§10) system in comparison to negative controls supplemented with the solvent DMSO. A longer lag

Amaranthus retroflexus = test: In planta growth experiment, A. retroflexus; assay type: in vivo; conditions: shoots sprayed, 3 mM
From the text: Seeds of Amaranthus retroflexus L. (Herbiseed, Twyford, UK) and Brassica napus L. cv. Mozart (Norddeutsche Pflanzenzucht Hans-Georg Lembke KG, Holtsee, Germany) were sown in vermiculite for germination. When cotyledons were fully expanded, seedlings were transplanted into plastic pots with a volume of 0.230 L filled with a substrate containing 50% bottom ash (0–4 mm), 30% peat and 20% pumice gravel (0–4 mm). Plants were watered every other day with 0.03% Hakaphos® Grün solution (Compo Expert GmbH, Münster, Germany) by sub-irrigation. Plants were grown in a climate chamber at 22 °C/20 °C day/night temperature and a day/night length of 16 h/8 h. Relative humidity was adjusted to 70% and light intensity was 320 μmol m^−2 s^−1 PAR (Photosynthetically Active Radiation) at plant level.
When seedlings reached the two-leaf growth stage, plant shoots were sprayed from the top with treatment solutions using spray bottles with a spraying angle of 35° (10 ml, neoLab Migge Laborbedarf-Vertriebs GmbH, Heidelberg, Germany). Treatment solutions were applied from a height of 8.5 cm above the pots. Each pot was sprayed once with a solution volume of 0.135 ml. Treatment solutions contained 2.4% (v/v) DMSO (dimethylsulfoxide, Duchefa Biochemie, Haarlem, the Netherlands), 0.1% (v/v) Tween® and the respective compound at a concentration of 3 mM. The control treatment contained 2.4% (v/v) DMSO, and 0.1% (v/v) Tween20. Further details are given in the Supplementary Information. […]
Experimental design and assessments of in planta experiments
We tested eleven compounds in a first experiment. In a follow-up experiment we tested selected […]
chalcone. Each treatment was repeated 12 times, except for oilseed rape in the second experiment (n=10). Pots were arranged in the growth chamber according to a fully randomized design. Initial growth of the second leaf of A. retroflexus plants was monitored by aquiring images of each plant from above from day zero to day two after treatment. Images were taken […]
from a fixed distance at 90° view angle using the camera Canon EOS 70D equipped with a Canon EF 14 mm/2.8 L II USM lens. Leaf area of single leaves was measured using the ImageJ software31, by drawing the leaf contours using a drawing tablet (Cintiq 22HD, Wacom Europe GmbH, Krefeld, Germany). Conversion of pixel to cm was achieved by using a target of known size inside the image. Six days after the treatment, half of the plants were harvested. Leaf area was assessed using a leaf area meter (LI3100C Area Meter, LI-Cor, Lincoln, Nebraska, USA) and samples were oven-dried at 65°C for seven days to obtain dry weight . Thirteen days after the treatment, this procedure was repeated with the second half of plants.
Chlorophyll fluorescence measurements […]
6 mm leaf discs were cut out of the second leaf and immediately placed into 96-well-plates filled with 300 µL 0.125 % Hoagland’s solution with 1 mM MES-KOH (MES-monohydrate, Merck, Darmstadt, Germany) buffered to a pH of 6.5. The treatment solution contained 1.6 % (v/v) DMSO, 0.1 % (v/v) Tween® 20 and 2',3',4',3,4-Pentahydroxychalcone at a concentration of 2 mM. The control treatment contained 1.6 % (v/v) DMSO, 0.1 % (v/v) Tween® 20. Each leaf disc was treated with 1.5 µL solution placed on top of the leaf discs. Plates were sealed with Parafilm and placed into a climate cabinet with 12h/12h day/night-length and a temperature of 22°C at a light intensity of 130 µmol m-2 s-1. 96 hours after treatment, chlorophyll fluorescence measurements were performed on leaf discs using an Imaging PAM M-Series fluorescence camera (Heinz Walz GmbH, Effeltrich, Germany). Leaf discs were dark adapted for 30 minutes, minimum and maximum chlorophyll fluorescence were obtained and leaf discs were illuminated for 30 minutes

Bacillus subtilis 168 = test: Bacterial growth in microscale cultivation, B. subtilis; assay type: cell-based; conditions: for activity at 55 µM / activity at 110 µM / activity at 550 µM / Lag Phase: relative to control; for Influence on bacterial growth: highest concentration tested (10× IC50) if not stated otherwise
Experimental: as §1, §2, §3, §4, §5, §6, §7, §8, §9, §10

O=C(/C=C/c1ccccc1)c1cc(O)ccc1O [Compound 5, 2′,5′-Dihydroxychalcone]
activity at 55 µM ([1]; KT2440, complex medium, 55 µM, read-out: Final Backscatter): 98.5%
activity at 55 µM ([1]; KT2440, complex medium, 55 µM, read-out: Growth rate): 105%
activity at 550 µM ([1]; KT2440, complex medium, 550 µM, read-out: Final Backscatter): 94.4%
activity at 550 µM ([1]; KT2440, complex medium, 550 µM, read-out: Growth rate): 118%
activity at 55 µM ([1]; KT2440, minimal medium, 55 µM, read-out: Final Backscatter): 95.5%
activity at 55 µM ([1]; KT2440, minimal medium, 55 µM, read-out: Growth rate): 99.4%
activity at 550 µM ([1]; KT2440, minimal medium, 550 µM, read-out: Final Backscatter): 96.7%
activity at 550 µM ([1]; KT2440, minimal medium, 550 µM, read-out: Growth rate): 101%
Lag Phase ([1]; complex medium, 55 µM): 99,1%
Lag Phase ([1]; complex medium, 550 µM): 105,0%
Lag Phase ([1]; minimal medium, 55 µM): 101,0%
Lag Phase ([1]; minimal medium, 550 µM): 98,0%
Influence on plants (Amaranthus retroflexus): No
growth (Bacillus subtilis 168; 550 μM, minimal media): abolished growth
activity at 55 µM (Bacillus subtilis 168; Bacillus subtilis, 168, complex medium, 55 µM, read-out: Final Backscatter): 96.2%
activity at 55 µM (Bacillus subtilis 168; Bacillus subtilis, 168, complex medium, 55 µM, read-out: Growth rate): 108%
activity at 110 µM (Bacillus subtilis 168; Bacillus subtilis, 168, complex medium, 110 µM, read-out: Final Backscatter): 98%
activity at 110 µM (Bacillus subtilis 168; Bacillus subtilis, 168, complex medium, 110 µM, read-out: Growth rate): 108%
activity at 550 µM (Bacillus subtilis 168; Bacillus subtilis, 168, complex medium, 550 µM, read-out: Final Backscatter): 76.3%
activity at 55 µM (Bacillus subtilis 168; Bacillus subtilis, 168, minimal medium, 55 µM, read-out: Final Backscatter): 96.4%
activity at 55 µM (Bacillus subtilis 168; Bacillus subtilis, 168, minimal medium, 55 µM, read-out: Growth rate): 107%
activity at 110 µM (Bacillus subtilis 168; Bacillus subtilis, 168, minimal medium, 110 µM, read-out: Final Backscatter): 102%
activity at 110 µM (Bacillus subtilis 168; Bacillus subtilis, 168, minimal medium, 110 µM, read-out: Growth rate): 110%
activity at 550 µM (Bacillus subtilis 168; Bacillus subtilis, 168, minimal medium, 550 µM, read-out: Final Backscatter): 30.5%
Influence on bacterial growth (Bacillus subtilis 168; Complex medium): fbs↓ lag↑
Influence on bacterial growth (Bacillus subtilis 168; Minimal medium): no growth (10× IC50)
Lag Phase (Bacillus subtilis 168; complex medium, 55 µM): 102,3%
Lag Phase (Bacillus subtilis 168; complex medium, 110 µM): 109,3%
Lag Phase (Bacillus subtilis 168; complex medium, 550 µM): 177,1%
Lag Phase (Bacillus subtilis 168; minimal medium, 55 µM): 103,5%
Lag Phase (Bacillus subtilis 168; minimal medium, 110 µM): 108,5%

Reference: paper PMC4893628, “Chalcone-based Selective Inhibitors of a C4 Plant Key Enzyme as Novel Potential Herbicides” (Scientific Reports, 2016)
